The numbers were not newly measured in patent US20140080864A1, “PHARMACETUICAL COMPOSITION COMPRISING DROTAVERINE” (CHINOIN PRIVATE CO LTD, priority 2011, published 2014), which cites them from elsewhere.

Structures can show the parent of a compound that is named as a salt.

The conditions of the data set: oral dose, healthy individuals; mean SD.

For `CCOc1ccc(/C=C2\NCCc3cc(OCC)c(OCC)cc32)cc1OCC` [drotaverine hydrochloride, 1-(3,4-diethoxybenzylidene)-6,7-diethoxy-1,2,3,4-tetrahydroisoquinoine], the “absolute bioavailability (mean)” value is 58.2%.
